# ChEMBL document CHEMBL1201862, “PubChem BioAssay data set” (2004)
#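 Five compound concentrations were applied to cells in 96-well plates for 48 hours; endpoints were derived by simple linear interpolation of the resulting dose-response curve. At the GI50, growth is halved.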 Active and inactive are the calls of the source. No stated cut-off is given here; in the data, active = GI50 up to about 1.1 µM and inactive = higher.
# Experiments:
# Test in all cases: NCI tumour cell line growth inhibition, 48 h
# [1] = tested on: 786-0
# [2] = tested on: LOX IMVI
# [3] = tested on: SF-295
# [4] = tested on: NCI-H23
# [5] = tested on: HOP-62
# [6] = tested on: ACHN
# [7] = tested on: M14
# [8] = tested on: EKVX
# [9] = tested on: K562
# [10] = tested on: SNB-19
# [11] = tested on: M19-MEL
# [12] = tested on: HT-29
# [13] = tested on: SK-MEL-5
# [14] = tested on: OVCAR-5
# [15] = tested on: KM12
# [16] = tested on: SK-MEL-28
# [17] = tested on: RXF 631
# [18] = tested on: IGROV-1
# [19] = tested on: SNB-78
# [20] = tested on: Malme-3M
# [21] = tested on: UACC-257
# [22] = tested on: OVCAR-4
# [23] = tested on: MOLT-4
# [24] = tested on: NCI-H460
# [25] = tested on: DMS-273
# [26] = tested on: DMS-114
# [27] = tested on: OVCAR-3
# [28] = tested on: HCT-15
# [29] = tested on: KM-20L2
# [30] = tested on: SN12C
# [31] = tested on: HOP-92
# [32] = tested on: SK-OV-3
# [33] = tested on: CCRF-CEM
# [34] = tested on: HL-60
# [35] = tested on: NCI-H522
# [36] = tested on: UACC-62
# [37] = tested on: UO-31
# [38] = tested on: A498
# [39] = tested on: HCT-116
# [40] = tested on: OVCAR-8
# [41] = tested on: U-251
# [42] = tested on: TK-10
# [43] = tested on: A549
# [44] = tested on: RPMI-8226
# [45] = tested on: SF-268
# [46] = tested on: LXFL 529
# [47] = tested on: SNB-75
# [48] = tested on: RXF 393
# [49] = tested on: CAKI-1
# [50] = tested on: NCI-H226
# [51] = tested on: XF498
# [52] = tested on: COLO 205
# [53] = tested on: DLD-1
# [54] = tested on: SW-620
# [55] = tested on: SF-539
# [56] = tested on: HCC 2998
compound,measurement,setting,value
COC(=O)C1=Cc2c(OC)cc(OC)c(OC)c2[C@H](c2cc(OC)c(OC)cc2OC)C1C(=O)OC (stereo partly specified),GI50,[1],> 100 µM (inactive)
same,GI50,[2],> 100 µM (inactive)
same,GI50,[3],88.5 µM (inactive)
same,GI50,[4],> 100 µM (inactive)
same,GI50,[5],> 100 µM (inactive)
same,GI50,[6],> 100 µM (inactive)
same,GI50,[7],> 100 µM (inactive)
same,GI50,[8],> 100 µM (inactive)
same,GI50,[9],20.1 µM (inactive)
same,GI50,[10],> 100 µM (inactive)
same,GI50,[11],> 100 µM (inactive)
same,GI50,[12],> 100 µM (inactive)
same,GI50,[13],> 100 µM (inactive)
same,GI50,[14],> 100 µM (inactive)
same,GI50,[15],> 100 µM (inactive)
same,GI50,[16],> 100 µM (inactive)
same,GI50,[17],> 100 µM (inactive)
same,GI50,[18],> 100 µM (inactive)
same,GI50,[19],20.7 µM (inactive)
same,GI50,[20],> 100 µM (inactive)
same,GI50,[21],> 10 µM (inactive)
same,GI50,[22],99.5 µM (inactive)
same,GI50,[23],> 100 µM (inactive)
same,GI50,[24],> 100 µM (inactive)
same,GI50,[25],42.7 µM (inactive)
same,GI50,[26],> 100 µM (inactive)
same,GI50,[27],> 100 µM (inactive)
same,GI50,[28],> 100 µM
same,GI50,[29],> 100 µM (inactive)
same,GI50,[30],> 100 µM (inactive)
same,GI50,[31],> 100 µM (inactive)
same,GI50,[32],> 100 µM (inactive)
same,GI50,[33],64.7 µM (inactive)
same,GI50,[34],28.8 µM (inactive)
same,GI50,[35],> 100 µM (inactive)
same,GI50,[36],> 100 µM (inactive)
same,GI50,[37],> 100 µM (inactive)
same,GI50,[38],> 100 µM (inactive)
same,GI50,[39],> 100 µM (inactive)
same,GI50,[40],> 100 µM (inactive)
same,GI50,[41],> 100 µM (inactive)
same,GI50,[42],> 100 µM (inactive)
same,GI50,[43],> 100 µM (inactive)
same,GI50,[44],> 100 µM (inactive)
same,GI50,[45],> 100 µM (inactive)
same,GI50,[46],> 100 µM (inactive)
same,GI50,[47],57.8 µM (inactive)
same,GI50,[48],> 100 µM (inactive)
same,GI50,[49],> 100 µM (inactive)
same,GI50,[50],> 100 µM (inactive)
same,GI50,[51],> 100 µM (inactive)
same,GI50,[52],> 100 µM (inactive)
same,GI50,[53],> 100 µM (inactive)
same,GI50,[54],> 100 µM (inactive)
same,GI50,[55],54.7 µM (inactive)
same,GI50,[56],> 100 µM (inactive)
